Here are results for 4 molecules from US11273172B2, “Synergistic combination of oligonucleotides and chemotherapeutic for treating cancer” (THE BOARD OF TRUSTEES OF THE UNIVERSITY OF ILLINOIS, priority 2017, dated 2022).

Experiment in all cases: MTT cell death assay, chemotherapeutic with and without MADD siRNA knockdown
(In general: Tetrazolium dyes change colour on reduction, which living cells bring about.)

Data set [1] deals with K562 chronic myelogenous leukemia cells. Type of data set: cell-based. The following applies: siRNA 10 nM. Here is the method: (§1) Cells are cultured and maintained at 37° C. in a humidified atmosphere containing 5% CO2 as described above. On Day 0, Cells are seeded in […] tissue culture dishes (Corning; Cat Number: 353003) to attain 60-70% confluence. In parallel, cells are also seeded in one 96-well plate (Corning; Cat number: 353072) for analysis of survival before reseeding. After 12-18 hours (Day 1), cells are transfected with Scramble or MADD siRNA at 10 nM concentration. The sequences of siRNAs (double-stranded) used are:
(§2) On Day 4, when cells are properly adhered and retained their shape in 96-well plates, drugs are added. All drugs are diluted in complete media on the same day prior to the addition to the cells. In untreated cells, media is replaced with complete media. Two hundred μl volume of media (with or without drugs) is used for the drug treatment assay. Plates are incubated 24 hours, 48 hours and 72 hours at 37° C. in humidified CO2 incubator.
(§3) An MTT assay is performed to determine relative survival after drug treatment as described above. MTT (3-[4,5-Dimethylthiazol-2-yl]-2,5-diphenyltetrazolium bromide; Thiazolyl blue) is purchased from Sigma Aldrich (Cat number: M5655). MTT is dissolved in sterile DPBS at the concentration of 5 mg/ml and filtered through […] syringe filter (Corning; Cat number: 431220). Ten μl of MTT solution is added per well of 96-well plate. Plates are incubated for 2 hours at 37° C. in the humidified CO2 incubator. After 2 hours, media is aspirated using vacuum inside the biosafety hood. Purple colored crystals formed in viable cells are dissolved by adding 100 μl of Dimethyl sulfoxide (Thermo Fisher Scientific; Cat number D128-500) Plates are kept on shaker for 10 minutes for compete dissolution of crystals and absorbance is recorded at 595 nm using Bio-Rad iMark microplate reader. Data is analyzed in MICROSOFT EXCEL® software. Relative survival is calculated with respect to absorbance of control (untreated cells) to determine the effect of transfection as well as combination treatment.
(§4) Each data set takes into account any spontaneous cell death which is observed upon transfection with Scramble siRNA; the amount of spontaneous cell death from Scramble siRNA transfection (baseline) is subtracted from the amount of cell death observed in each siRNA transfection reaction to yield a Net Percent (Net %) cell death after accounting for Scrambled siRNA-induced cell death.
(§5) Cells are cultured and maintained at 37° C. in a humidified atmosphere containing 5% CO2 as described above. On Day 0, Cells are seeded in […] tissue culture dishes (Corning; Cat Number: 353003) to attain 60-70% confluence. In parallel, cells are also seeded in one 96-well plate (Corning; Cat number: 353072) for analysis of survival before reseeding. After 12-18 hours (Day 1), cells are transfected with Scramble or MADD siRNA at 10 nM concentration. The sequences of siRNAs (double stranded) used are:
(§6) On Day 4, when cells are properly adhered and retained their shape in 96-well plates, drugs are added. Doxorubicin was added at a working concentration of 5.0 nM, 9.375 nM, 0.075 μM, 0.25 μM, 0.5 μM, and 0.8 μM. All drugs are diluted in complete media on the same day prior to the addition to the cells. In untreated cells, media is replaced with complete media. Two hundred μl volume of media (with or without drugs) is used for the drug treatment assay. Plates are incubated 24 hours, 48 hours and 72 hours at 37° C. in humidified CO2 incubator.
(§7) An MTT assay is performed to determine relative survival after drug treatment as described above. MTT (3-[4,5-Dimethylthiazol-2-yl]-2,5-diphenyltetrazolium bromide; Thiazolyl blue) is purchased from Sigma Aldrich (Cat number: M5655). MTT is dissolved in sterile DPBS at the concentration of 5 mg/ml and filtered through […] syringe filter (Corning; Cat number: 431220). Ten μl of MTT solution is added per well of 96-well plate. Plates are incubated for 2 hours at 37° C. in the humidified CO2 incubator. […]

In data set [2] the test system is SU.86.86 pancreatic cancer cells. It counts as cell-based. The following applies: siRNA 10 nM. The method, then: as §1, §2, §3, §4, §5, §6, §7
For data set [3], the system named is H2227 lung cancer cells. It counts as cell-based. The following applies: siRNA 10 nM. Here is the method:
as §1, §2, §3, §4, §5, §6, §7

The test system of data set [4] is C643 thyroid cancer cells. It counts as cell-based, human. The following applies: Sorafinib 0.975 μM, siRNA 10 nM, 48 hours post Sorafinib treatment. Here is the method:
as §1, §2, §3, §4

In data set [5] the test system is SKOV3 ovarian cancer cells. Type of data set: cell-based. Particulars: TRAIL 50 ng/ml, siRNA 10 nM, 48 hours post TRAIL treatment. The method, then:
as §5
(§8) On Day 4, when cells are properly adhered and retained their shape in 96-well plates, drugs are added. All drugs are diluted in complete media on the same day prior to the addition to the cells. In untreated cells, media is replaced with complete media. Two hundred μl volume of media (with or without drugs) is used for the drug treatment assay. Plates are incubated 24 h, 48 h and 72 hours at 37° C. in humidified CO2 incubator.
as §3, §4

Data set [6] has as its system CFPAC-1 pancreatic cancer cells. It counts as cell-based. The following applies: siRNA 10 nM, 72 hours post TRAIL treatment. Here is the method:
as §5, §8, §3, §4

The subject of data set [7] is HCT116 colon cancer cells. Type of data set: cell-based. Particulars: TRAIL 50 ng/ml, siRNA 10 nM, 48 hours post TRAIL treatment. Here is the method: as §5, §8, §3, §4
Where [8] appears, read: Sorafinib 0.3125 μM, 72 hours post Sorafinib treatment.
Where [9] appears, read: Sorafinib 1.25 μM, 48 hours post Sorafinib treatment.
The mark [10] stands for this setting: Sorafinib 1.25 μM, 72 hours post-Sorafinib treatment.
Setting [11] is: Sorafinib 5 μM, 24 hours post Sorafinib treatment.
[12] abbreviates: Sorafinib 3 μM, 48 hours post Sorafinib treatment.
The mark [13] stands for this setting: Doxorubicin 0.25 μM, 72 hours post Doxorubicin treatment.
Setting [14] is: Doxorubicin 0.5 μM, 48 hours post Doxorubicin treatment.
The mark [15] stands for this setting: TRAIL 6.25 ng/ml, 72 hours post TRAIL treatment.
Setting [16] is: TRAIL 12.5 ng/ml, 48 hours post TRAIL treatment.
Where [17] appears, read: Doxorubicin 5 nM, 24 hours post Doxorubicin treatment.
[18] abbreviates: Doxorubicin 9.375 nM, 48 hours post Doxorubicin treatment.
The mark [19] stands for this setting: Gemcitabine 25 nM, 48 hours post Gemcitabine treatment.

Where “and” joins values, the source holds several entries; their conditions need not be identical. Identical values can stand only once.

Regarding `CNC(=O)c1cc(Oc2ccc(NC(=O)Nc3ccc(Cl)c(C(F)(F)F)c3)cc2)ccn1` [Sorafinib], the “Net % cell death after accounting for Scrambled siRNA” value (“Net % cell death after accounting” below) was 0% in data set [1] (setting [8]); 0% in data set [1] (setting [9]); 0% in data set [2] (setting [10]); 17% in data set [2] (setting [11]); 18% in data set [3] (setting [12]); 3% in data set [4]. For the same molecule, the “Observed % Cell death” value in data set [1] (setting [8]) was determined as 0%; in data set [1] (setting [9]) it was 0%; in data set [2] (setting [10]), 0%; in data set [2] (setting [11]) it was 17%; in data set [3] (setting [12]), 18%; in data set [4], 3%.
On to “MADD siRNA: siRNA targeting exon 13L of the MADD splice variant of the IG20 gene; SEQ ID NO: 4, 5′-GAUUGUCAUAGAUUCGCCGTT-3′ (chemistry not given here)”, for which the “Net % cell death after accounting” value is 29% and 38 − 9 = 29% in data set [5]; 53% and 53 − 0 = 53% in data set [6] (TRAIL 6.25 ng/ml); 53% and 53 − 0 = 53% in data set [6] (TRAIL 12.5 ng/ml); 47% and 59 − 12 = 47% in data set [1] (setting [13]); 47% and 59 − 12 = 47% in data set [1] (setting [8]); 47% and 59 − 12 = 47% in data set [1] (setting [15]). Besides, the “Net % cell death after accounting” value in data set [2] (setting [17]) was 0% and 9 − 11 = 0%; in data set [2] (setting [11]) it was 0% and 9 − 11 = 0%; in data set [4] it was 13% and 14 − 1 = 13%. Besides, the “Observed % Cell death” value in data set [5] came to 38%; in data set [6] (TRAIL 6.25 ng/ml), 53%; in data set [6] (TRAIL 12.5 ng/ml) it was 53%; in data set [7] it was 43%; in data set [1] (setting [13]) it was 59%; in data set [1] (setting [14]), 53%. The “Observed % Cell death” value in data set [1] (setting [8]) is 59%; in data set [1] (setting [9]), 53%; in data set [1] (setting [15]) it was 59%; in data set [1] (setting [16]), 53%; in data set [2] (setting [17]), 9%; in data set [2] (setting [10]), 41%. Moreover, the “Observed % Cell death” value in data set [2] (setting [11]) was determined as 9%; in data set [3] (setting [18]), 35%; in data set [3] (setting [19]) it was 35%; in data set [3] (setting [12]) it was 35%; in data set [4], 14%.
Take “Scrambled siRNA: non-specific Scramble siRNA, negative control; SEQ ID NO: 5, 5′-UUGCUAAGCGUCGGUCAAUTT-3′ (chemistry not given here)”: the “Net % cell death after accounting” value in data set [5] is reported as 9 − 9 = 0%; in data set [6] (TRAIL 6.25 ng/ml) it was 17 − 17 = 0%; in data set [6] (TRAIL 12.5 ng/ml), 0 − 0 = 0%; in data set [7], 27 − 27 = 0%; in data set [1] (setting [13]) it was 12 − 12 = 0%; in data set [1] (setting [14]), 49 − 49 = 0%. Further, the “Net % cell death after accounting” value is on record as 12 − 12 = 0% in data set [1] (setting [8]); 49 − 49 = 0% in data set [1] (setting [9]); 12 − 12 = 0% in data set [1] (setting [15]); 49 − 49 = 0% in data set [1] (setting [16]); 11 − 11 = 0% in data set [2] (setting [17]); 28 − 28 = 0% in data set [2] (setting [10]). Also, the “Net % cell death after accounting” value in data set [2] (setting [11]) was 11 − 11 = 0%; in data set [3] (setting [18]) it was 28 − 28 = 0%; in data set [3] (setting [19]), 28 − 28 = 0%; in data set [3] (setting [12]), 28 − 28 = 0%; in data set [4], 1 − 1 = 0%. In addition, the “Observed % Cell death” value in data set [5] amounted to 9%; in data set [6] (TRAIL 6.25 ng/ml), 0%; in data set [6] (TRAIL 12.5 ng/ml) it was 0%; in data set [7] it was 27%; in data set [1] (setting [13]) it was 12%; in data set [1] (setting [14]), 49%. In addition, the “Observed % Cell death” value in data set [1] (setting [8]) is listed as 12%; in data set [1] (setting [9]), 49%; in data set [1] (setting [15]), 12%; in data set [1] (setting [16]) it was 49%; in data set [2] (setting [17]) it was 11%; in data set [2] (setting [10]) it was 28%. Moreover, the “Observed % Cell death” value was 11% in data set [2] (setting [11]); 28% in data set [3] (setting [18]); 28% in data set [3] (setting [19]); 28% in data set [3] (setting [12]); 1% in data set [4].

B1: TRAIL: cytotoxic protein which induces apoptosis in tumor cells, but not in normal cells (protein, UniProt P50591 1-281, looked up)
Tumor necrosis factor ligand …: MAMMEVQGGPSLGQTCVLIVIFTVLLQSLCVAVTYVYFTNELKQMQDKYSKSGIACFLKEDDSYWDPNDEESMNSPCWQVKWQLRQLVRKMILRTSEETISTVQEKQQNISPLVRERGPQRVAAHITGTRGRSNTLSSPNSKNEKALGRKINSWESSRSGHSFLSNLHLRNGELVIHEKGFYYIYSQTYFRFQEEIKENTKNDKQMVQYIYKYTSYPDPILLMKSARNSCWSKDAEYGLYSIYQGGIFELKENDRIFVSVTNEHLIDMDHEASFFGAFLVG
As to B1, the “Net % cell death after accounting” value in data set [5] is 13%; in data set [6] (TRAIL 6.25 ng/ml) it was 30%; in data set [6] (TRAIL 12.5 ng/ml), 8%; in data set [7], 27%; in data set [1] (setting [15]), 0%; in data set [1] (setting [16]), 0%. Besides, the “Observed % Cell death” value in data set [5] was 13%; in data set [6] (TRAIL 6.25 ng/ml), 30%; in data set [6] (TRAIL 12.5 ng/ml), 8%; in data set [7], 27%; in data set [1] (setting [15]), 0%; in data set [1] (setting [16]), 0%.
